Data as given in paper PMC6369212, “Cytochrome P450 3A Enzymes Are Key Contributors for Hepatic Metabolism of Bufotalin, a Natural Constitute in Chinese Medicine Chansu” (Frontiers in Pharmacology, 2019).
“And” between values parts separate entries of the source, which are not always exact repeats. Equal entries are not always repeated.

Key:
[1] = tested on: HLM; assay: Material balance of BFT and its metabolite in HLM; type: in vitro ADME, human
Procedure: A single metabolite of BFT was identified following incubation with HLM (0.3 mg protein/ml) in the presence of the NADPH-generating system (Figure 1). […] The metabolite was characterized by UFLC-DAD-ESI-MS, and the formation of monohydroxylbufotalin was NADPH-, time-, and microsome-dependent. […] The [M+H]^+ and [M+CH3CN+H]^+ ion of the metabolite at m/z in HLM were 461.3 and 502.4, respectively.

[2] = tested on: BFT 5β-hydroxylation in pooled HLM; assay: Chemical inhibition of BFT 5β-hydroxylation by selective CYP inhibitors in HLM; type: in vitro ADME, human; conditions: BFT 10 μM, HLM 0.25 mg protein/ml
Procedure: (§1) Human liver microsomes or CYPs were incubated with NADPH-generating system, which included NADP^+ (1 mM), glucose-6-phosphate (10 mM), glucose-6-phosphate dehydrogenase (1 unit/ml), and 4 mM MgCl2 in 100 mM potassium phosphate buffer (pH 7.4) in a total incubation volume of 200 μl. After a 3 min preincubation at 37°C, the reaction was initiated by the addition of NADPH-generating system and further incubated at 37°C for 30 min. The reaction was quenched with 100 μl of ice-cold acetonitrile. The samples were chilled, spun at 20,000 × g for 20 min at 4°C. Aliquots of supernatants were then stored at -20°C until analysis. All incubations throughout the study were done in three experiments conducted in duplicate with S.D. values generally below 10%.

[3] = in vitro; conditions: human; for Km: pH 7.4, Km, BFT 5β-hydroxylation, HLM 0.25 mg protein/mL, 30 min, biphasic kinetics
Procedure: as §1
(§2) The formation rates of 5-HBFT was within the linear range of the incubation time and protein concentration. […] BFT was incubated with pooled HLM (0.25 mg protein/mL) for 30 min, or with recombinant CYP3A4 (5 nM) and CYP3A5 (10 nM) for 30 min. […] The kinetic constants were calculated with GraphPad Prism software, version 6.0, and the results were graphically represented by Eadie–Hofstee plots.
(§3) (1) v=Vmax 1[S]/Kmax 1+[S]+Vmax 2[S]/Kmax 2+[S]
(§4) where v is the rate of the reaction, [S] is the substrate concentration, Vmax is the maximum velocity estimate, Km is the substrate affinity constant.
(§5) Km values are μM, Vmax values were in nmol/min/mg protein for liver microsomes, or in nmol/min/nmol CYP for CYP3A. […] Each value was the mean ± S.D. of three determinations performed in duplicate.

[4] = tested on: CC(=O)O[C@H]1C[C@]2(O)[C@@H]3CC[C@@H]4C[C@@H](O)CC[C@]4(C)[C@H]3CC[C@]2(C)[C@H]1c1ccc(=O)oc1; assay: cells, lysate or membranes named; conditions: other: CYP3A5 10 nM, 30 min, substrate inhibition kinetics; pH 7.4; 37.0 °C
Procedure: as §1
(§6) BFT was incubated with pooled HLM (0.25 mg protein/mL) for 30 min, or with recombinant CYP3A4 (5 nM) and CYP3A5 (10 nM) for 30 min. […] The kinetic constants were calculated with GraphPad Prism software, version 6.0, and the results were graphically represented by Eadie–Hofstee plots.
(2) v=Vmax/1+(Km/[S])+([S]/Ksi)
(§7) where Ksi is the substrate inhibition constant.
as §5

[5] = tested on: other P450 isoforms; assay: Reaction phenotyping of BFT hydroxylation with other recombinant P450 isoforms; type: in vitro ADME, human; conditions: BFT 3 and 100 μM, isoforms other than CYP3A4 and CYP3A5
Source text: BFT and BF were purchased from Shanghai Winherb Medical Technology Company (Shanghai, China). ABT, furafylline, sulfaphenazole, clomethiazole, omeprazole, 8-methoxypsoralen, ticlopidine, CYP3cide, glucose-6-phosphate dehydrogenase, D-glucose-6-phosphate, and NADP^+ were obtained from Sigma (St. Louis, MO, United States). Montelukast, quinidine, ketoconazole was purchased from Jianglai Biotechnology Co., Ltd. (Shanghai, China). The pooled HLMs (from 50 donors, lot no. X008067) were obtained from BioreclamationIVT (Baltimore, MD, United States). A panel of baculovirus expressed human P450s (CYP1A1, 1A2, 2A6, 2A13, 2B6, 2C8, 2C9, 2C19, 2D6, 2E1, 3A4, 3A5, 4F2, and 4F3), co-expressing NADPH-CYP reductase and cytochrome b5 were obtained from BD Gentest Corp (Woburn, MA, United States). All chemicals and solvents were of analytical grade.
[…] cDNA-expressed human P450 isoforms co-expressing NADPH-P450 reductase were used for assay of BFT hydroxylation activity.

[6] = tested on: HLM
Procedure: as §1, §2, §3, §4, §5

[7] = target: recombinant human CYP3A5 (Homo sapiens, UniProt P20815); assay: Kinetic analysis of 5β-hydroxylation in recombinant CYP3A5
Procedure: as §1, §6
(2) v=Vmax/1+(Km/[S])+([S]/Ksi)
as §7, §5

[8] = target: recombinant human CYP3A4 (Homo sapiens, UniProt P08684); assay: Kinetic analysis of 5β-hydroxylation in recombinant CYP3A4
Procedure: as §1, §2, §3, §4, §5

[9] = HLM 0.25 mg protein/mL, 30 min, biphasic kinetics
[10] = CYP3A5 10 nM, 30 min, substrate inhibition kinetics
[11] = CYP3A4 5 nM, 30 min, biphasic kinetics

recombinant human CYP3A5, sequence (P20815 whole entry): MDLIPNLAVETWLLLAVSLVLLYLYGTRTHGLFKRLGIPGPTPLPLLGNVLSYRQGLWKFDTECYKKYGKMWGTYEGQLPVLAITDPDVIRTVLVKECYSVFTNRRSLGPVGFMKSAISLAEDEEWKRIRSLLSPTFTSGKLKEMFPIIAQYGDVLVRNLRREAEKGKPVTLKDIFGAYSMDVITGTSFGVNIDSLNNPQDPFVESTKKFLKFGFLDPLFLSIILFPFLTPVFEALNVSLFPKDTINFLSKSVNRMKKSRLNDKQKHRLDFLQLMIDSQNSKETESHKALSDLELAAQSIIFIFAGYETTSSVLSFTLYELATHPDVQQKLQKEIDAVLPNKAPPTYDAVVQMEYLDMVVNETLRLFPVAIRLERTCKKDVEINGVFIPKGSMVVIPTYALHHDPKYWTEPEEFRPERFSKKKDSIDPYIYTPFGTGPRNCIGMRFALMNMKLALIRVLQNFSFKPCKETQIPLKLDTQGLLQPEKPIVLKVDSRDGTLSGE
recombinant human CYP3A4, sequence (P08684 2-503 limits assumed): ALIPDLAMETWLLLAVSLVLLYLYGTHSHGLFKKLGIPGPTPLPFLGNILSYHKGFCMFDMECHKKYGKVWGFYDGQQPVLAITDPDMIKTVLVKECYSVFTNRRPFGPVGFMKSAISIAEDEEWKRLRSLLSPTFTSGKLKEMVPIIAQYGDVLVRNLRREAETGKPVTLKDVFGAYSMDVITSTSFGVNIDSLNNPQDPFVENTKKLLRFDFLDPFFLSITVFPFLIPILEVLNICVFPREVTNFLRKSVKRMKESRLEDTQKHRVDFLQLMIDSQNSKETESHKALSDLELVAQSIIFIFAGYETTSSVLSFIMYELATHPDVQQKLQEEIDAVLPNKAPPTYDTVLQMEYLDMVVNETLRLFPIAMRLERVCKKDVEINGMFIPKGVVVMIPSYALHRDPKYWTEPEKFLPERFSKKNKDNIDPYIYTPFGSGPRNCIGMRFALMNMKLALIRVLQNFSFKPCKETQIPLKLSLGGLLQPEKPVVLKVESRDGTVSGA

With `CC(=O)OC1CC2(O)C3CCC4(O)CC(O)CCC4(C)C3CCC2(C)C1c1ccc(=O)oc1` (stereo not drawn) [5-HBFT, 5β-hydroxylbufotalin] the “Compound (%), material balance” value ([1]; time 0 min) was 0%, the “Compound (%), material balance” value ([1]; time 30 min) was 11.1392% and the “Compound (%), material balance” value ([1]; time 60 min) was 24.5928%.
With `Nn1nnc2ccccc21` [ABT, 1-aminobenzotriazole] the “inhibition of 5-HBFT formation in HLM” value [2] was “completely”.
Work on `C[C@]12CC[C@H](O)C[C@H]1CC[C@@H]1[C@@H]2CC[C@]2(C)[C@@H](c3ccc(=O)oc3)CC[C@]12O` [BF, bufalin, reference compound] yielded a Km at 30 min ([3]; pH 7.4) of 8 ± 0.52 µM.
For `Cc1ccc(-c2c(-c3nn(C)c4ncnc(N5CC[C@H](N6CCCCC6)C5)c34)cnn2C)cc1` [CYP3cide], the “inhibition of 5-HBFT formation in HLM” value [2] was ~90%.
With recombinant human CYP3A5 (Homo sapiens) the Km [4] was 2.91 ± 0.24 µM and the kcat [4] was 3.45 ± 0.09 nmol/min per nanomole P450.
In the case of `CC(=O)O[C@H]1C[C@]2(O)[C@@H]3CC[C@@H]4C[C@@H](O)CC[C@]4(C)[C@H]3CC[C@]2(C)[C@H]1c1ccc(=O)oc1` [BFT, bufotalin], the “metabolite formation by other P450 isoforms” value [5] is reported as “no metabolites were detected”, the “Vmax, high-affinity site (Vmax1), BFT 5β-hydroxylation” value [6, 9] is reported as 33.31 per min/mg and 33.31 ± 12.64 per min/mg and the “Vmax, low-affinity site (Vmax2), BFT 5β-hydroxylation” value [6, 9] is reported as 107.30 per min/mg and 107.30 ± 11.77 per min/mg. For the same molecule, the “kinetic behavior of BFT 5β-hydroxylation” value ([6]; HLM, Eadie–Hofstee plot) was “biphasic kinetics”, the “Compound (%), material balance” value ([1]; time 0 min) was 99.5% and the “Compound (%), material balance” value ([1]; time 30 min) was 88.0247%. The “Compound (%), material balance” value ([1]; time 60 min) was 73.5708%, the “CLint, BFT 5β-hydroxylation” value ([7]; CYP3A5) was 1186.12 and the “Ksi (substrate inhibition constant), BFT 5β-hydroxylation” value [7, 10] was 170.00 ± 12.69 µM. The “Vmax, BFT 5β-hydroxylation” value [7, 10] was 3.45 nmol/min per nanomole P450, the “kinetic behavior of BFT 5β-hydroxylation” value ([7]; CYP3A5, Eadie–Hofstee plot) was “substrate inhibition kinetic” and the Km ([3]; high-affinity site (Km1)) was 3.71 ± 2.68 µM. The Km ([3]; low-affinity site (Km2)) was 134 ± 72.2 µM, the “Vmax, high-affinity site (Vmax1), BFT 5β-hydroxylation” value [8, 11] was 6.87 per min/nmol P450 and 6.87 ± 3.59 per min/nmol P450 and the “Vmax, low-affinity site (Vmax2), BFT 5β-hydroxylation” value [8, 11] was 33.70 per min/nmol P450 and 33.70 ± 3.08 per min/nmol P450. For the same molecule, the “kinetic behavior of BFT 5β-hydroxylation” value ([8]; CYP3A4, Eadie–Hofstee plot) was “biphasic kinetics”.
